In ChEMBL document CHEMBL1150076, “Effects of various isoquinoline alkaloids on in vitro 3H-dopamine uptake by rat striatal synaptosomes” (J Nat Prod, 1995):

Biological target: Sodium-dependent dopamine transporter (Rattus norvegicus, UniProt P23977)
Assay type: subcellular, Wistar, Brain, Synaptosomes

Sodium-dependent dopamine transporter, sequence (P23977 whole entry): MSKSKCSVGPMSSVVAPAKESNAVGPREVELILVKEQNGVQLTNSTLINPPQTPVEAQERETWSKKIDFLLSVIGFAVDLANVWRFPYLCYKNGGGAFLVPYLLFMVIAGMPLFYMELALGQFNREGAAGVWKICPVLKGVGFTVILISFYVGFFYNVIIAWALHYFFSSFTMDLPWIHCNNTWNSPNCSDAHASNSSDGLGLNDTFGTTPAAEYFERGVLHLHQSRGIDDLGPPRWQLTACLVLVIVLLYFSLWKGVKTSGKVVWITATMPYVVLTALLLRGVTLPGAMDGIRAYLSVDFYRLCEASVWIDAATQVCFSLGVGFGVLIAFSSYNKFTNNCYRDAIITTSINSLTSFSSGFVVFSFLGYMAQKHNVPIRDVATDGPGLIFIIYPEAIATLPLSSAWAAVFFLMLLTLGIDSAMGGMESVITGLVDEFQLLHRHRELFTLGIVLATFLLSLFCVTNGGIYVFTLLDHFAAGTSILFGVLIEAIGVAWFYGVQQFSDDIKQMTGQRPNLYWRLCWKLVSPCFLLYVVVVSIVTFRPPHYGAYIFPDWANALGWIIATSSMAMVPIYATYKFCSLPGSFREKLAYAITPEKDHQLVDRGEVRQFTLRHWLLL

Row | Compound | IC50 [µM]
1 | COc1c(O)c2c3c(c1OC)CCN[C@@H]3Cc1ccccc1-2 [ISOPILINE] | 2.5
2 | Cc1c2c3c(cc4c(c3c3ccc(O)cc13)OCO4)CCN2C [BELEMINE] | 61.4
3 | COc1cc2c(cc1OC)Oc1c(O)ccc3c1[C@H](C2)N(C)CC3 [CULARIDINE] | 41.2
4 | COc1c(O)c2c3c(c1OC)CCN(C)[C@@H]3Cc1ccccc1-2 | 46.4
5 | COc1cc2c(cc1OC)[C@H](Cc1ccc(O)cc1)NCC2 [NORARMEPAVINE] | 37
6 | COc1cc2c3cc1Oc1c(O)c(OC)cc4c1[C@H](Cc1ccc(OC)c(c1)-c1cc(ccc1O)C[C@H]3N(C)CC2)N(C)CC4 [ANTIOQUINE] | 3.4
7 | COc1cc2c(cc1O)Oc1c(O)ccc3c1[C@H](C2)N(C)CC3 [CELTISINE] | > 100
8 | COc1cc2c(cc1O)[C@H](Cc1ccc(O)cc1)NCC2 [L-COCLAURINE] | 14.1
9 | COc1cc2c(cc1OC)[C@@H](Cc1ccc(Oc3cc(C[C@@H]4c5cc(OC)c(OC)cc5CCN4C)ccc3OC)cc1)N(C)CC2 | 5.8
10 | COc1ccc2c(c1O)Oc1c(OC)ccc3c1[C@H](C2)N(C)CC3 [SARCOCAPNIDINE] | 85.5
11 | COc1cc2c(cc1OC)[C@@H](Cc1ccc(Oc3cc(C[C@H]4c5cc(OC)c(OC)cc5CCN4C)ccc3OC)cc1)N(C)CC2 [DIMETHYLGRISABINE] | 1.1
12 | COc1ccc2cc1Oc1ccc(cc1)C[C@H]1c3c(cc(OC)c(OC)c3Oc3cc4c(cc3OC)CCN(C)[C@@H]4C2)CCN1C [OBABERINE] | 3.9
13 | COc1ccc2cc1Oc1ccc(cc1)C[C@@H]1c3cc(c(OC)cc3CCN1C)Oc1c(OC)c(OC)cc3c1[C@H](C2)N(C)CC3 [ISOTETRANDRINE] | 4.2
14 | COc1cc2c(cc1O)C[C@@H]1NCCc3cc(O)c(OC)c-2c31 [NORBOLDINE] | 16.5
15 | COc1cccc2c1-c1c3c(cc4c1[C@@H](C2)N(C)CC4)OCO3 | 31.8
16 | O=C1c2ccccc2-c2c3c(cc4ccnc1c24)OCO3 [LIRIODENINE] | 31.2
17 | O=C(O)CCCCCCNC1c2ccccc2CCc2ccccc21 [AMINEPTINE] | 1
18 | COc1cc2c3cc1Oc1c(OC)c(OC)cc4c1[C@@H](C(=O)c1ccc(OC)c(c1)-c1cc(ccc1OC)C[C@H]3N(C)CC2)N(C)CC4 [DIMETHYLPSEUDOXANDRINE] | 20.1
19 | COc1ccc2c(c1OC)Oc1c(O)ccc3ccnc(c13)C2 [OXOSARCOPHYLLINE] | > 100

Row | Compound | IC50 [µM]
20 | COc1ccc2c(c1)c(C)c1c3c(cc4c(c32)OCO4)CCN1C | 46.6
21 | COc1c2c3c(c4c1OCO4)-c1ccccc1C[C@H]3NCC2 [NORSTEPHALAGINE] | 1.4
22 | COc1cc(C[C@H]2c3c(ccc(OC)c3O)CCN2C)ccc1O [ISOCRASSIFOLINE] | 36.2
23 | COc1cc2c(cc1Oc1c(O)c(OC)cc3c1[C@H](Cc1ccc(OC)c(-c4cc(C=O)ccc4O)c1)N(C)CC3)C(=O)N(C)CC2 [SECANTIOQUINE] | > 100
24 | COc1cc2c(cc1O)C[C@H]1c3c(ccc(O)c3O2)CCN1C [BREOGANINE] | 56.5
25 | Oc1ccc2c(c1)C[C@H]1NCCc3cc4c(c-2c31)OCO4 [ANOLOBINE] | 8.1
26 | COc1cc2c(cc1OC)Oc1c(OC)ccc(CCN(C)C)c1C=C2 [SECOCULARINE] | 28.2
27 | COc1cc2ccnc3c2c(c1OC)-c1ccccc1C3=O [LYSICAMINE] | > 100
28 | COc1ccc2cc1Oc1ccc(cc1)C[C@H]1c3c(cc(OC)c(O)c3Oc3cc4c(cc3OC)CCN(C)[C@@H]4C2)CCN1C [HOMOAROMOLINE] | 10.9
29 | COc1cc2c(cc1OC)[C@@H](Cc1ccc(OC)c(Oc3ccc(C[C@H]4NCCc5cc(OC)c(OC)cc54)cc3)c1)N(C)CC2 [PAMPULHAMINE] | 84.2
30 | COc1cc2c(cc1OC)Oc1c(O)ccc(CCN(C)C)c1C=C2 [SECOCULARIDINE] | 13.4
31 | c1ccc2c(c1)C[C@H]1NCCc3cc4c(c-2c31)OCO4 [ANONAINE] | 0.8
32 | COc1ccc(C[C@H]2c3c(cc(OC)c4c3Oc3cc5c(cc3O4)CCN(C)C5=O)CCN2C)cc1-c1cc(C=O)ccc1O [SECOLUCIDINE] | > 100
33 | COc1cc2c3c(c(-c4c5c6c(cc7c(c6c6ccccc46)OCO7)CCN5)c4ccccc4c3c1OC)NCC2 [HETEROPSINE] | > 100
34 | COc1cc2c3c(c1OC)-c1c(ccc(O)c1O)C[C@H]3N(C)CC2 [SAUVEOLINE] | > 100
35 | COc1cc2c(cc1OC)C(=O)c1nccc3ccc(OC)c(c13)O2 [OXOCULARINE] | > 100
36 | COc1c(O)c2c3c(nccc3c1OC)C(C)(C)c1cc(O)ccc1-2 [MELOSMINE] | 23.6
37 | COc1ccc2c(c1O)Oc1c(O)ccc3c1[C@H](C2)N(C)CC3 [CLAVICULINE] | > 100
